Tests used:
[1] = tested on: SH3, SH2C and SH2N domains of the p85 subunit of PI3K; assay type: binding
p85 subunit of PI3K = assay type: binding, human
PI3K/Akt = assay type: cell-based, human

NS1: Wild-type nonstructural protein 1 of influenza A H1N1 Puerto Rico/8/34 (SEQ ID NO:2)
interaction of NS1 alone with SH2C domain of p85 [1]: interacted
interaction of NS1 alone with SH3 domain of p85 [1]: interacted
interaction of NS1 with SH2C domain of p85 [1]: precipitated NS1
interaction of NS1 with SH3 domain of p85 [1]: precipitated NS1
precipitation of NS1 by p85 antibody (p85 subunit of PI3K): did precipitate NS1 protein
Akt phosphorylation in NS1 expressing cells compared with vector (PI3K/Akt): greater degree of Akt phosphorylation

Source: patent US7507411B2, “Attenuated influenza NS1 variants” (University of Saskatchewan, priority 2006, dated 2009)
